Reference: patent publication US20250163052A1, “cGAS INHIBITORS AND USES THEREOF” (Cornell University, priority 2022, published 2025)

Columns and labels:
h-cGAS = h-cGAS (Homo sapiens, UniProt Q8N884); assay: Cell-free human cGAS enzyme inhibition assay (ATP depletion, Kinase-Glo Max); type: biochemical; conditions: 3 h; for inhibition at 1 µM: read-out: h-cGAS, conc. 1 μM; for inhibition at 10 µM: read-out: h-cGAS, conc. 10 μM
Experimental: (§1) Cell-free mouse and human cGAS enzyme inhibition assay (Table 2). Activity of all compounds (in Table 1) against m-cGAS (30 nM) and or h-cGAS, (100 nM) was determined by measuring the conversion of ATP and GTP (100 μM each) to cGAMP in the presence of dsDNA (5 ug/mL) in a reaction buffer composed of Tris-HCl (20 mM, pH7.4), NaCl (150 mM), MnCl2 (0.2 mM, h-cGAS) or MgCl2 (5 mM, m-cGAS) and Tween-20 (0.01%), and the remaining ATP concentration using Kinase-Glo®Max Luminescent Kinase Assay (Promega, Madison, WI), as described (Lama, et. al., 2019). Briefly, 10 μl of a master mix of 0.4 mM ATP, 0.4 mM GTP, 0.02 mg/mL dsDNA in the reaction buffer supplemented with 2 mM DTT was added to reaction wells containing TDI-6570 or TDI-8246 (2× of the desired concentration) in the same buffer ([…]) using a Thermo 8-channel Multidrop Combi dispenser. Next, 10 μl of a 4×m-cGAS (0.120 μM) or h-cGAS (0.4 μM) solution in the reaction buffer supplemented with 2 mM DTT was added to appropriate wells. Similar sets of reactions without cGAS or the inhibitor was set by adding the buffer alone. The reactions with the plates sealed were incubated at 37° C. (1 hour for m-cGAS and 3 hours for h-cGAS) and stopped by addition of 40 μl of the Kinase-Glo®Max. The luminescence was recorded in relative light units (RLUs) using a Biotek Synergy H1 Hybrid plate reader (BioTek, Winooski, VT). […] All reactions were run in triplicates and calculated using GraphPad Prism 9. The values represent mean IC50±S.D.

m-cGAS = m-cGAS (Mus musculus, UniProt Q8C6L5); assay: Cell-free mouse cGAS enzyme inhibition assay (ATP depletion, Kinase-Glo Max); type: biochemical; conditions: 1 h; for inhibition at 1 µM: read-out: m-cGAS, conc. 1 μM; for inhibition at 10 µM: read-out: m-cGAS, conc. 10 μM
Experimental: as §1

NFkB-SEAP = assay: THP1-Dual cells transfected with DNA, nfkb expression (Quantiblue); type: cell-based; conditions: Homo sapiens; for inhibition at 10 µM: THP-1, 10 μM; for inhibition at 30 µM: THP-1, 30 μM
Experimental: (§2) Evaluation of active cGAS inhibitors in THP1 cells (Table 3). Cellular activity of all compounds (in Table 3) was determined using THP1-Dual™ cells as described (Lama et. al., 2019). THP1-Dual™ cells (Invivogen) (50000 cells in 100 μl media) were seeded into each well of a 96-well plate and treated with compounds at various dilution for 4 hours. Subsequently, cells were transfected with DNA (2 ug/ml) and lipofectamine and incubate the cells were incubated overnight. Ifnb expression was measured in cell supernatant using Quantiluc, nfkb expression was determined using Quantiblue, and cell viability using Promega® CellTiter-Glo®.

IFNB = assay: THP1-Dual cells transfected with DNA, Ifnb expression (Quantiluc); type: cell-based; conditions: Homo sapiens; for inhibition at 10 µM: THP-1, 10 μM; for inhibition at 30 µM: THP-1, 30 μM
Experimental: as §2

THP1 cells = assay: THP1-Dual cells, cell viability (CellTiter-Glo); type: cell-based
Experimental: as §2

h-cGAS, sequence (Q8N884 whole entry): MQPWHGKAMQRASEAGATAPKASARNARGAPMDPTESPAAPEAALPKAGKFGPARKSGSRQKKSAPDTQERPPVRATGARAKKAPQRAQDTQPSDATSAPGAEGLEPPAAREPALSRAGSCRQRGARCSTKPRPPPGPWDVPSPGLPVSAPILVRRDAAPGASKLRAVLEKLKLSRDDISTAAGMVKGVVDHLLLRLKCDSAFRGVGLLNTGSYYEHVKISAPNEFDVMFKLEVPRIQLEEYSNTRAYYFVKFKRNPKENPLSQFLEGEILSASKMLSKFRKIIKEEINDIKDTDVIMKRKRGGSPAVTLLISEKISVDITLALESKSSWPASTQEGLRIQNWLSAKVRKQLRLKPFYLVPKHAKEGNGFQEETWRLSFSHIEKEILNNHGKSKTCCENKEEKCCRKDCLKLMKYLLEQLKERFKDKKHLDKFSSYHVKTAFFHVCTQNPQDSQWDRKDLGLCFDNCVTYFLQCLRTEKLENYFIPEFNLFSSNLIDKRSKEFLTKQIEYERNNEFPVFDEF
m-cGAS, sequence (Q8C6L5 whole entry): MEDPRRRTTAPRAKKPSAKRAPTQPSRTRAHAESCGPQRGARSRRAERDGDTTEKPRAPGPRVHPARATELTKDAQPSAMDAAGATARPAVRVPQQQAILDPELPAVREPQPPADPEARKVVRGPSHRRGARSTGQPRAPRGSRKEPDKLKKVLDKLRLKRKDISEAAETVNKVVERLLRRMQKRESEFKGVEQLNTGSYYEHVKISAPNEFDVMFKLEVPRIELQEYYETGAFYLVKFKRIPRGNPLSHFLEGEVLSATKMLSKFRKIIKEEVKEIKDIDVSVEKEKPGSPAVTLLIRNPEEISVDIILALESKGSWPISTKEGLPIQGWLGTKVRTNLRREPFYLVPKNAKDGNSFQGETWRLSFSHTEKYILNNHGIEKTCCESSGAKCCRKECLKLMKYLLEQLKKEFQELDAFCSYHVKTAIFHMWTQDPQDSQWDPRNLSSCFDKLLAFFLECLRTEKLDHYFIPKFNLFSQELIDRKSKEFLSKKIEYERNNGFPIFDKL

| SMILES | inhibition at 1 µM (h-cGAS) | inhibition at 10 µM (h-cGAS) | inhibition at 1 µM (m-cGAS) | inhibition at 10 µM (m-cGAS) | inhibition at 10 µM (NFkB-SEAP) | inhibition at 30 µM (NFkB-SEAP) | inhibition at 10 µM (IFNB) | inhibition at 30 µM (IFNB) | Cell viability 10 μM (THP1 cells) | Cell viability 30 μM (THP1 cells) |
| --- | --- | --- | --- | --- | --- | --- | --- | --- | --- | --- |
| NCC(=O)N1CCc2c(sc3c(Cl)c(Cl)cc(-c4ncccn4)c23)C1 [Compound 89] | 0 to 24% | 50 to 74% | 0 to 24% | 25 to 49% | < 24% | 50 to 74% | < 24% | 50 to 74% | +++ (+, ++, and +++ mean the compound respectively shows 25-49%; 50-74%; or 75-100% viability to cells) | ++ (+, ++, and +++ mean the compound respectively shows 25-49%; 50-74%; or 75-100% viability to cells) |
| Nc1ccc(-c2cc(Cl)c(Cl)c3[nH]c4c(c23)CN(C(=O)[C@@H]2CCCN2)CC4)cn1 [Compound 16] |  | 75 to 100% |  | 0 to 24% | 75 to 100% | 75 to 100% | 75 to 100% | 75 to 100% | +++ (+, ++, and +++ mean the compound respectively shows 25-49%; 50-74%; or 75-100% viability to cells) | + (+, ++, and +++ mean the compound respectively shows 25-49%; 50-74%; or 75-100% viability to cells) |
| CNc1cnn(-c2cc(Cl)c(Cl)c3sc4c(c23)CCN(C(=O)CN)C4)c1 [Compound 95] |  | 50 to 74% |  | 50 to 74% | 25 to 49% | 25 to 49% | < 24% | 25 to 49% | +++ (+, ++, and +++ mean the compound respectively shows 25-49%; 50-74%; or 75-100% viability to cells) | +++ (+, ++, and +++ mean the compound respectively shows 25-49%; 50-74%; or 75-100% viability to cells) |
| NCC(=O)N1CCc2c(sc3c(Cl)c(Cl)cc(-c4ccc(N)nc4)c23)C1 [Compound 75] | 0 to 24% | 50 to 74% |  | 75 to 100% | < 24% | 75 to 100% | 75 to 100% | 75 to 100% | +++ (+, ++, and +++ mean the compound respectively shows 25-49%; 50-74%; or 75-100% viability to cells) | +++ (+, ++, and +++ mean the compound respectively shows 25-49%; 50-74%; or 75-100% viability to cells) |
| Cn1ccc(-c2cc(Cl)c(Cl)c3c2c2c(n3C)CCN(C(=O)C(C)(C)O)C2)n1 [Compound 5] | 25 to 49% | 75 to 100% |  | 0 to 24% | < 24% | < 24% | < 24% | < 24% | +++ (+, ++, and +++ mean the compound respectively shows 25-49%; 50-74%; or 75-100% viability to cells) | +++ (+, ++, and +++ mean the compound respectively shows 25-49%; 50-74%; or 75-100% viability to cells) |
| NCC(=O)N1CCc2c(sc3c(Cl)c(Cl)cc(-c4cc[nH]n4)c23)C1 [Compound 77] | 25 to 49% | 50 to 74% | 25 to 49% | 75 to 100% | 50 to 74% | 75 to 100% | 25 to 49% | 75 to 100% | +++ (+, ++, and +++ mean the compound respectively shows 25-49%; 50-74%; or 75-100% viability to cells) | − (Cell viability <24%, in THP1 cells is expressed as “−”) |
| NCC(=O)N1CCc2c(sc3c(Cl)c(Cl)cc(-c4ccco4)c23)C1 [Compound 80] | 25 to 49% | 75 to 100% | 25 to 49% | 75 to 100% | 50 to 74% | 75 to 100% | 50 to 74% | 75 to 100% | +++ (+, ++, and +++ mean the compound respectively shows 25-49%; 50-74%; or 75-100% viability to cells) | − (Cell viability <24%, in THP1 cells is expressed as “−”) |
